Assay: Solubility of IPBC in Rhodiasolv DIB and PEG 300 (HPLC of supernatant)
Format: physicochemical
Conditions: room temperature, after-stirred 12 h, supernatant by HPLC
Method: Solubility of IPBC in Rhodiasolv DIB and PEG 300
The solvent was introduced as initial charge at room temperature, and IPBC was added until a sediment persisted. It was after-stirred for a further 12 h, the solid was centrifuged off and the remaining supernatant was analyzed by means of HPLC.

CCCCNC(=O)OCC#CI [IPBC, 3-iodopropargyl butylcarbamate]
solubility of IPBC in Rhodiasolv DIB: 36.1 % by weight | solubility of IPBC in polyethylene glycol 300: 44.9 % by weight
